Values quoted from earlier work in US20030004116A1, “Noni extract for prevention of disease” (priority 2001, published 2003).

Tests used:
K-ras-NRK cells = details: reversible when compound withdrawn
[1] = test system: RSV-NRK cells expressing the src oncogene

For `COc1c(C=O)c(O)cc2c1C(=O)c1ccccc1C2=O` [Damnacathal], the “morphology and cytoskeletal structure” value (K-ras-NRK cells) is listed as “induced normal morphology and cytoskeletal structure” and the effect on cells [1] is listed as “no effect”.
